Assay [1] addresses T1, recombinant N-terminal MLH1 (residues 15-340) (Homo sapiens, UniProt P40692).
T1 construct: recombinant N-terminal MLH1 (residues 15-340)
T1 sequence (P40692 15-340): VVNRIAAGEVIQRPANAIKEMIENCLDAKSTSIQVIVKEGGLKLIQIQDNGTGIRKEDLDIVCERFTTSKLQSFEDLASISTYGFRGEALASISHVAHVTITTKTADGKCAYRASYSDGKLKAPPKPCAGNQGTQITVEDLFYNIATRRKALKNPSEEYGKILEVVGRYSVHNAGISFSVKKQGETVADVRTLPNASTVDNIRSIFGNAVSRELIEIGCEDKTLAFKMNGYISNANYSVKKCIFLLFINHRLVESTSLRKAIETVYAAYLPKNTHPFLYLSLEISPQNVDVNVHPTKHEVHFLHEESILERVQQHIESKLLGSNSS
Put plainly: Fluorescence Polarisation Assay for MLH1. The note with it: fluorescence polarisation probe displacement; 100 nM N-terminal MLH1, 5 nM probe compound. Format: binding. Here is the method: Fluorescence Polarisation Assay for MLH1
Test compounds, as 10 mM DMSO stocks, were dispensed into a 384-well Low Flange Black Flat Bottom Polystyrene Non-binding Surface plate (Corning®, item number 3575) using a Labcyte Echo acoustic liquid handler. Test compounds were added to wells in columns 1-22 whilst DMSO was added to wells in columns 23 and 24 in order to normalise the plate. 20 μL of a 2× solution (200 nM) of recombinant N-terminal MLH1 (residues 15-340) in assay buffer (25 mM HEPES, pH 7.5, 250 mM NaCl, 10 mM MgCl2, 0.01% Triton X-100, 5 mM dithiothreitol) was added to all wells in columns 1-23 and 20 μL assay buffer was added to all wells in column 24 using an E1-ClipTip pipette (ThermoFisher). Plates were centrifuged for 1 minute at 250×g and were incubated at room temperature for 30 minutes prior to the addition of 20 μL of 2× (10 nM) 5-((5-(4-((2-(2,4-dihydroxy-5-isopropylbenzoyl)isoindolin-5-yl)methyl)piperazin-1-yl)pentyl)carbamoyl)-2-(6-(dimethylamino)-3-(dimethyliminio)-3H-xanthen-9-yl)benzoate in assay buffer (prepared from a 1 mM DMSO stock) with an E1-ClipTip pipette (ThermoFisher). The final concentration of N-terminal MLH1 was 100 nM and the final concentration of the probe compound was 5 nM. Compound plates were centrifuged for 1 minute at 250×g for 1 minute and immediately read on a PheraStar FSX (fitted with 384-well aperture spoon and 590 675 675 FP optic module). The gain and focus were adjusted before each plate was read so that the polarisation of a no enzyme control (column 24) was equal to 35 mP. Data were normalised against the no inhibitor controls (column 23) and no enzyme controls (column 24).

Assay [2] addresses T2, recombinant N-terminal PMS2 (residues 1-365) (Homo sapiens, UniProt P54278).
T2 construct: recombinant N-terminal PMS2 (residues 1-365)
T2 sequence (P54278 1-365): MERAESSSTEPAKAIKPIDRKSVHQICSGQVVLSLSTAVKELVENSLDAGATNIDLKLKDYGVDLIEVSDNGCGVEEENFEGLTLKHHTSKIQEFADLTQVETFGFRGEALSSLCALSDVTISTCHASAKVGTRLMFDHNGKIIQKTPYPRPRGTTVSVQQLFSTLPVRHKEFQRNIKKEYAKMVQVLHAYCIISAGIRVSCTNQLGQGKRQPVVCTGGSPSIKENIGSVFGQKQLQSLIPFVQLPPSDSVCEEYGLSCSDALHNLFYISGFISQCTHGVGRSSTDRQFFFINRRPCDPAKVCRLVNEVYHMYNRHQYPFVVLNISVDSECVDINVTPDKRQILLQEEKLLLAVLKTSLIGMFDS
The assay can be described thus: Fluorescence Polarisation Assay for PMS2. The class given is binding. The note with it: fluorescence polarisation probe displacement; 10 nM N-terminal PMS2, 5 nM probe compound; read-out: PMS2 IC50. Here is the method:
Fluorescence Polarisation Assay for PMS2
For single point screening, test compounds were added to wells in columns 1-22 whilst DMSO was added to wells in columns 23 and 24 in order to normalise the plate. For potency determination, serial dilutions of test compounds were added to wells in columns 3-22 and DMSO volume was normalised across the plate.
20 μL assay buffer was added to all wells in columns 1 and 24 (column 24 only for single point screening) using a MultiDrop Combi (ThermoFisher). Plates were centrifuged for 1 minute at 250×g and were incubated at room temperature for 30 minutes prior to the addition of 20 μL of 2× (20 nM) of 5-((5-(4-((2-(2,4-dihydroxy-5-isopropylbenzoyl)isoindolin-5-yl)methyl)piperazin-1-yl)pentyl)carbamoyl)-2-(6-(dimethylamino)-3-(dimethyliminio)-3H-xanthen-9-yl)benzoate (referred to hereinafter as “probe compound”) in assay buffer (prepared from a 100 μM DMSO stock) with a MultiDrop Combi (ThermoFisher). The final concentration of N-terminal PMS2 was 10 nM and the final concentration of probe compound was 5 nM.
Compound plates were centrifuged for 1 minute at 250×g for 1 minute and were incubated at room temperature for 1 hour before being read on a PheraStar FSX (fitted with 384-well aperture spoon and 540 590 590 FP optic module). The gain and focus were adjusted before each plate was read so that the polarisation of a no enzyme control (column 24) was equal to 35 mP. Data were normalised against the no inhibitor controls (column 23) and no enzyme controls (column 24).

Each structure is given as a SMILES string. Bounds are passed on as bounds.

Data on 19 molecules can be found in patent US20240293392A1, “INHIBITOR COMPOUNDS” (NeoPhore Limited, priority 2021, published 2024).

As for `O=C(c1c(O)cc(O)cc1OCc1ccccc1)N1Cc2cccc(NC3CCCOC3)c2C1` (single isomer, unassigned) [Example 30, (2-(Benzyloxy)-4,6-dihydroxyphenyl)(4-((tetrahydro-2H-pyran-3-yl)amino)isoindolin-2-yl)methanone], the IC50 in assay [1] is below 1000 nM; in assay [2], 1000 to 10000 nM.
Taken in the same sequence, the figures for `O=C(c1c(O)cc(O)cc1OCc1ccccc1)N1Cc2cccc(NC3CCCOC3)c2C1` (single isomer, unassigned) [Example 31, (2-(Benzyloxy)-4,6-dihydroxyphenyl)(4-((tetrahydro-2H-pyran-3-yl)amino)isoindolin-2-yl)methanone] were 1000 to 10000 nM and above 10000 nM.
Take `O=C(c1c(O)cc(O)cc1OCc1ccccc1)N1Cc2ccccc2C(O)C1` (single isomer, unassigned) [Example 50, (2-Benzyloxy-4,6-dihydroxy-phenyl)-(4-hydroxy-3,4-dihydro-1H-isoquinolin-2-yl)methanone]: the half-maximal inhibitory concentration (IC50) in assay [1] is 1000 to 10000 nM; in assay [2], above 10000 nM.
Take `O=C(c1c(O)cc(O)cc1OCc1ccccc1)N1Cc2ccccc2C(O)C1` (single isomer, unassigned) [Example 51, (2-Benzyloxy-4,6-dihydroxy-phenyl)-(4-hydroxy-3,4-dihydro-1H-isoquinolin-2-yl)methanone]: the IC50 was 1000 to 10000 nM in assay [1] and above 10000 nM in assay [2].
For the molecule `CN1CC(Nc2cccc3c2CN(C(=O)c2c(O)cc(O)cc2OCc2ccccc2)CC3)CC1=O` (single isomer, unassigned) [Example 61, 4-((2-(2-(Benzyloxy)-4,6-dihydroxybenzoyl)-1,2,3,4-tetrahydroisoquinolin-8-yl)amino)-1-methylpyrrolidin-2-one], the IC50 in assay [1] was below 1000 nM; in assay [2] it was above 10000 nM.
As for `CN1CC(Nc2cccc3c2CN(C(=O)c2c(O)cc(O)cc2OCc2ccccc2)CC3)CC1=O` (single isomer, unassigned) [Example 62, 4-((2-(2-(Benzyloxy)-4,6-dihydroxybenzoyl)-1,2,3,4-tetrahydroisoquinolin-8-yl)amino)-1-methylpyrrolidin-2-one], the IC50 in assay [1] and in assay [2] was below 1000 nM throughout.
For `COc1cc2c(c(NC3CCOC3)c1)CN(C(=O)c1c(O)cc(O)cc1OCc1ccccc1)CC2` (single isomer, unassigned) [Example 72, (2-(Benzyloxy)-4,6-dihydroxyphenyl)(6-methoxy-8-((tetrahydrofuran-3-yl)amino)-3,4-dihydroisoquinolin-2(1H)-yl)methanone], the IC50 in assay [1] was below 1000 nM; in assay [2], 1000 to 10000 nM.
Taken in the same sequence, the figures for `COc1cc2c(c(NC3CCOC3)c1)CN(C(=O)c1c(O)cc(O)cc1OCc1ccccc1)CC2` (single isomer, unassigned) [Example 73, (2-(Benzyloxy)-4,6-dihydroxyphenyl)(6-methoxy-8-((tetrahydrofuran-3-yl)amino)-3,4-dihydroisoquinolin-2(1H)-yl)methanone] were 1000 to 10000 nM and above 10000 nM.
For the molecule `O=C(c1c(O)cc(O)cc1OCc1ccccc1)N1CCc2cccc(NC3CCS(=O)(=O)C3)c2C1` (single isomer, unassigned) [Example 147a, (2-(Benzyloxy)-4,6-dihydroxyphenyl)(8-((1,1-dioxidotetrahydrothiophen-3-yl)amino)-3,4-dihydroisoquinolin-2(1H)-yl)methanone], the figures for the IC50 in assay [1] and in assay [2] were below 1000 nM and above 10000 nM, respectively.
Taken in the same sequence, the figures for `O=C(c1c(O)cc(O)cc1OCc1ccccc1)N1CCc2cccc(NC3CCS(=O)(=O)C3)c2C1` (single isomer, unassigned) [Example 147b, (2-(Benzyloxy)-4,6-dihydroxyphenyl)(8-((1,1-dioxidotetrahydrothiophen-3-yl)amino)-3,4-dihydroisoquinolin-2(1H)-yl)methanone] were below 1000 nM and 1000 to 10000 nM.
On to `O=C(c1c(O)cc(O)cc1OCc1ccccc1)N1CCc2cccc(N[C@@H]3CCOC3)c2C1` [Example 1, (R)-(2-(Benzyloxy)-4,6-dihydroxyphenyl)(8-((tetrahydrofuran-3-yl)amino)-3,4-dihydro-isoquinolin-2(1H)-yl)methanone], for which the figures for the IC50 in assay [1] and in assay [2] were below 1000 nM and above 10000 nM, respectively.
Take `O=C(c1c(O)cc(O)cc1OCc1ccccc1)N1CCc2cccc(N[C@H]3CCOC3)c2C1` [Example 2, (S)-(2-(Benzyloxy)-4,6-dihydroxyphenyl)(8-((tetrahydrofuran-3-yl)amino)-3,4-dihydro-isoquinolin-2(1H)-yl)methanone]: the IC50 in assay [1] is below 1000 nM; in assay [2], 1000 to 10000 nM.
The corresponding values for `O=C(c1c(O)cc(O)cc1OCc1ccccc1)N1Cc2ccc(CN3CCNCC3)cc2C1` [Example 3, (2-(Benzyloxy)-4,6-dihydroxyphenyl)(5-(piperazin-1-ylmethyl)isoindolin-2-yl)methanone] are below 1000 nM and 1000 to 10000 nM.
The corresponding values for `CNCc1ccc2c(c1)CN(C(=O)c1c(O)cc(O)cc1OCc1ccccc1)C2` [Example 4, (2-(Benzyloxy)-4,6-dihydroxyphenyl)(5-((methylamino)methyl)isoindolin-2-yl)methanone] are below 1000 nM and below 1000 nM.
Turning to `N#CC1CC(Oc2cccc3c2CN(C(=O)c2c(O)cc(O)cc2OCc2ccccc2)C3)C1` (centres unmarked) [Example 5, 3-((2-(2-(Benzyloxy)-4,6-dihydroxybenzoyl)isoindolin-4-yl)oxy)cyclobutane-1-carbonitrile], the half-inhibitory concentration (IC50) in assay [1] and in assay [2] was 1000 to 10000 nM each time.
As to `O=C(c1c(O)cc(O)cc1OCc1ccccc1)N1Cc2cccc(NC3CCOC3)c2C1` (centres unmarked) [Example 6, (2-(Benzyloxy)-4,6-dihydroxyphenyl)(4-((tetrahydrofuran-3-yl)amino)isoindolin-2-yl)methanone], the IC50 in assay [1] was below 1000 nM; in assay [2] it was 1000 to 10000 nM.
Turning to `O=C(c1c(O)cc(O)cc1OCc1ccccc1)N1Cc2cccc(NC3COC3)c2C1` [Example 7, (2-(Benzyloxy)-4,6-dihydroxyphenyl)(4-(oxetan-3-ylamino)isoindolin-2-yl)methanone], the IC50 in assay [1] is below 1000 nM; in assay [2] it was 1000 to 10000 nM.
The corresponding values for `O=C(c1c(O)cc(O)cc1OCc1ccccc1)N1Cc2cccc(N3CCCC(O)C3)c2C1` (centres unmarked) [Example 8, (2-(Benzyloxy)-4,6-dihydroxyphenyl)(4-(3-hydroxypiperidin-1-yl)isoindolin-2-yl)methanone] are 1000 to 10000 nM and 1000 to 10000 nM.
Turning to `CN1CCN(Cc2cccc3c2CN(C(=O)c2c(O)cc(O)cc2OCc2ccccc2)C3)CC1` [Example 9, (2-(Benzyloxy)-4,6-dihydroxyphenyl)(4-((4-methylpiperazin-1-yl)methyl)isoindolin-2-yl)methanone], the half-maximal inhibitory concentration (IC50) in assay [1] and in assay [2] was 1000 to 10000 nM in each case.
